Measurements taken from patent EP0511903B1, “Conjugate of calcitonin and polyethylene glycol” (TEVA PHARMACEUTICAL INDUSTRIES LTD., priority 1991, dated 1998).
Ends that are not written are not given here. amino‑PEG = not defined here

Tested on: 2 anticorps monoclonaux reconnaissant 2 épitopes différents sur la calcitonine humaine
Assay: Immunoradiometric assay (IRMA) for human calcitonin using 2 monoclonal antibodies
Format: binding
Details: IRMA with 2 monoclonal antibodies
Source text: Un conjugué de polyéthylène glycol aminé couplé sur l'acide aspartique de la calcitonine humaine a été synthétisé suivant la méthode décrite à l'exemple 2. On dispose d'un dosage immunoradiométrique pour la Calcitonine humaine, utilisant 2 anticorps monoclonaux reconnaissant 2 épitopes différents sur la calcitonine humaine. Par ce dosage, le dérivé PEG-NH2-CTH n'est plus reconnu qu'à 0.4 % par rapport à la calcitonine humaine. Ceci signifie qu'au moins un épitope de la calcitonine humaine se trouve masqué par le couplage en position 15 d'une molécule de PEG. Il y a donc une modification de l'antigénicité de la calcitonine, de par son couplage au PEG, qui diminue fortement sa reconnaissance par des anticorps.

**Q.** How did the “reconnaissance par rapport à la calcitonine humaine” value turn out when “PEG NH2-CThumaine: conjugué de polyéthylène glycol aminé couplé sur l'acide aspartique (position 15) de la calcitonine humaine (CGNLSTCMLGTYTQD(amino‑PEG)FNKFHTFPQTAIGVGAP; ends and bridges not checked; UniProt P01258 85-116, looked up)” was run?
**A.** 0.4%
